Measured values: patent publication US10160762B2, “6-alkyl dihydropyrazolopyrimidinone compounds as PDE2 inhibitors” (Merck Sharp & Dohme Corp., priority 2015, dated 2018)

target: T1, Rhesus PDE2A3 (Macaca mulatta, UniProt B3VTJ2); assay: PDE2 fluorescence polarization (IMAP FP) inhibition assay, rhesus PDE2A3; format: biochemical, rhesus macaque; conditions: Lab B; read-out: Rhesus PDE2 Ki (nM) Lab B
T1 construct: made in house; host or cells: AD293 cells, transient transfection; supernatant of sonicated lysate
T1 sequence (B3VTJ2 1-941): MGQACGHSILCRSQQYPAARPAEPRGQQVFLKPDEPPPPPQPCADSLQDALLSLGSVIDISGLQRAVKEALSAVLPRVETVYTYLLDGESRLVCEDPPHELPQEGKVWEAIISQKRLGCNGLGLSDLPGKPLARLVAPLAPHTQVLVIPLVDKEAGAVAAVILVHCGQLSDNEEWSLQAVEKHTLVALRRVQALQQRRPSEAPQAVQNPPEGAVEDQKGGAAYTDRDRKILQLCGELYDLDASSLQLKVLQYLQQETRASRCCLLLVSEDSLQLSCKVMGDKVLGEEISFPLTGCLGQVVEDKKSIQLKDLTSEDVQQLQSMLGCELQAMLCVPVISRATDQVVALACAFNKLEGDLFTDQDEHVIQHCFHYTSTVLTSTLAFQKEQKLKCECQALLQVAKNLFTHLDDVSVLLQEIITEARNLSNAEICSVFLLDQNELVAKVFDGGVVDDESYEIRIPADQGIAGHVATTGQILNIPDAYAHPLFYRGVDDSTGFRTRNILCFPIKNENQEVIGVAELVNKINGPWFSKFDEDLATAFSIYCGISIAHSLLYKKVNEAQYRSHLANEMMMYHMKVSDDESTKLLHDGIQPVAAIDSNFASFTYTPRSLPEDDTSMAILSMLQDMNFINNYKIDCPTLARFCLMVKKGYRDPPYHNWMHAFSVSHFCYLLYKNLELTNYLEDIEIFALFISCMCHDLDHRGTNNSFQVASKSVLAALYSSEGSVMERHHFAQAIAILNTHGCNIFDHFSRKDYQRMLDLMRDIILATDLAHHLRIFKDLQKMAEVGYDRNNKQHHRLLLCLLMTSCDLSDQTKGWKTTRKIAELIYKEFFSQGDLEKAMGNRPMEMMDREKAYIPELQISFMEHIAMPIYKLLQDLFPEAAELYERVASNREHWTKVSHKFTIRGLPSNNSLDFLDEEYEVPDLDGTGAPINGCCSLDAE
Outline: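 Enzyme source was the lysate supernatant of AD293 cells transiently expressing rhesus PDE2A3, diluted to give 20% conversion of 50 nM FAM-cAMP, with 1 µM cGMP as activator. Buffer was 10 mM Tris pH 7.2, 10 mM MgCl2, 1 mM DTT.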

| Ki | SMILES |
| --- | --- |
| 36 nM | CC(C)c1nc2c(c(CO)nn2C(C)c2ccc(C(F)(F)F)cc2)c(=O)[nH]1 (racemic) [Example 296, 3-(Hydroxymethyl)-6-(1-methylethyl)-1-{1-[4-(trifluoromethyl)phenyl]ethyl}-1,5-dihydro-4H-pyrazolo[3,4-d]pyrimidin-4-one] |
| 1.7 nM | Cc1nc2c(c(CO)nn2C(C)c2ccc(C(F)(F)F)cc2F)c(=O)[nH]1 (single isomer, unassigned) [Example 17, (S)- or (R)-1-(1-(2-Fluoro-4-(trifluoromethyl)phenyl)ethyl)-3-(hydroxymethyl)-6-methyl-1H-pyrazolo[3,4-d]pyrimidin-4(5H)-one] |
| 1.9 nM | Cc1nc2c(c(CO)nn2C(C)c2ccc(C(F)(F)F)cc2Cl)c(=O)[nH]1 (single isomer, unassigned) [Example 19, (S)- or (R)-1-(1-(2-Chloro-4-(trifluoromethyl)phenyl)ethyl)-3-(hydroxymethyl)-6-methyl-1H-pyrazolo[3,4-d]pyrimidin-4(5H)-one] |
| 2.9 nM | Cc1nc2c(c(CO)nn2C(C)c2ccc(OC(F)F)cc2)c(=O)[nH]1 (single isomer, unassigned) [Example 21, (S)- or (R)-1-(1-(4-(Difluoromethoxy)phenyl)ethyl)-3-(hydroxymethyl)-6-methyl-1H-pyrazolo[3,4-d]pyrimidin-4(5H)-one] |
| 1.7 nM | Cc1nc2c(c(CO)nn2C(C)c2ccc(SC(F)(F)F)cc2)c(=O)[nH]1 (single isomer, unassigned) [Example 23, (S)- or (R)-3-(Hydroxymethyl)-6-methyl-1-(1-(4-(trifluoromethylthio)phenyl)ethyl)-1H-pyrazolo[3,4-d]pyrimidin-4(5H)-one] |
| 1.9 nM | Cc1nc2c(c(CO)nn2C(c2ccc(C(F)(F)F)cc2)C2(C)CC2)c(=O)[nH]1 (single isomer, unassigned) [Example 24, (R)- or (S)-3-(Hydroxymethyl)-6-methyl-1-((1-methylcyclopropyl)(4-(trifluoromethyl)phenyl)methyl)-1H-pyrazolo[3,4-d]pyrimidin-4(5H)-one] |
| 69 nM | Cc1nc2c(c(CC(F)(F)F)nn2C(c2ccc(C(F)(F)F)cc2)C(C)(C)C)c(=O)[nH]1 (single isomer, unassigned) [Example 57, (S)- or (R)-1-(2,2-Dimethyl-1-(4-(trifluoromethyl)phenyl)propyl)-6-methyl-3-(2,2,2-trifluoroethyl)-1H-pyrazolo[3,4-d]pyrimidin-4(5H)-one] |
| 22 nM | Cc1nc2c(c(CC(F)(F)F)nn2C(c2ccc(C(F)(F)F)cc2)C2(C)CC2)c(=O)[nH]1 (single isomer, unassigned) [Example 59, (S)- or (R)-6-Methyl-1-((1-methylcyclopropyl)(4-(trifluoromethyl)phenyl)methyl)-3-(2,2,2-trifluoroethyl)-1H-pyrazolo[3,4-d]pyrimidin-4(5H)-one] |
| 4.2 nM | Cc1nc2c(c(CO)nn2C(C)c2ccc(S(F)(F)(F)(F)F)cc2)c(=O)[nH]1 (single isomer, unassigned) [Example 77] |
| 9.4 nM | Cc1nc2c(c(CO)nn2C(c2ccc(C(F)(F)F)cc2)C(C)(C)C)c(=O)[nH]1 (single isomer, unassigned) [Example 83, (S)- or (R)-1-(2,2-Dimethyl-1-(4-(trifluoromethyl)phenyl)-propyl)-3-(hydroxymethyl)-6-methyl-1H-pyrazolo[3,4-d]pyrimidin-4(5H)-one] |
| 16 nM | Cc1nc2c(c(CO)nn2C(c2ccc(OC(F)(F)F)cc2)C(C)C)c(=O)[nH]1 (single isomer, unassigned) [Example 84, (R)- or (S)-3-(Hydroxymethyl)-6-methyl-1-(2-methyl-1-(4-(trifluoromethoxy)phenyl)propyl)-1H-pyrazolo[3,4-d]pyrimidin-4(5H)-one] |
| 0.91 nM | Cc1nc2c(c(CO)nn2C(c2ccc(OC(F)(F)F)cc2)C(C)C)c(=O)[nH]1 (single isomer, unassigned) [Example 85, (S)- or (R)-3-(Hydroxymethyl)-6-methyl-1-(2-methyl-1-(4-(trifluoromethoxy)phenyl)propyl)-1H-pyrazolo[3,4-d]pyrimidin-4(5H)-one] |
| 3.2 nM | Cc1nc2c(c(CO)nn2C(c2ccc(C(F)(F)F)c(F)c2)C(C)C)c(=O)[nH]1 (single isomer, unassigned) [Example 87, (S)- or (R)-1-(1-(3-Fluoro-4-(trifluoromethyl)phenyl)-2-methylpropyl)-3-(hydroxymethyl)-6-methyl-1H-pyrazolo[3,4-d]pyrimidin-4(5H)-one] |
| 51 nM | Cc1nc2c(c(CO)nn2C(c2ccc(C(C)(C)C)cc2)C2CC2)c(=O)[nH]1 (single isomer, unassigned) [Example 88, (R)- or (S)-1-((4-tert-Butylphenyl)(cyclopropyl)methyl)-3-(hydroxymethyl)-6-methyl-1H-pyrazolo[3,4-d]pyrimidin-4(5H)-one] |
| 0.48 nM | Cc1nc2c(c(CO)nn2C(c2ccc(C(C)(C)C)cc2)C2CC2)c(=O)[nH]1 (single isomer, unassigned) [Example 89, (S)- or (R)-1-((4-tert-Butylphenyl)(cyclopropyl)methyl)-3-(hydroxymethyl)-6-methyl-1H-pyrazolo[3,4-d]pyrimidin-4(5H)-one] |
| 90 nM | Cc1nc2c(c(CO)nn2C(c2ccc(C(F)(F)F)c(F)c2)C2CC2)c(=O)[nH]1 (single isomer, unassigned) [Example 90, (R)- or (S)-1-(Cyclopropyl(3-fluoro-4-(trifluoromethyl)phenyl)methyl)-3-(hydroxymethyl)-6-methyl-1H-pyrazolo[3,4-d]pyrimidin-4(5H)-one] |
| 1 nM | Cc1nc2c(c(CO)nn2C(c2ccc(C(F)(F)F)c(F)c2)C2CC2)c(=O)[nH]1 (single isomer, unassigned) [Example 91, (S)- or (R)-1-(Cyclopropyl(3-fluoro-4-(trifluoromethyl)phenyl)methyl)-3-(hydroxymethyl)-6-methyl-1H-pyrazolo[3,4-d]pyrimidin-4(5H)-one] |
| 10 nM | Cc1nc2c(c(CO)nn2C(c2ccc(OC(F)(F)F)c(F)c2)C2CC2)c(=O)[nH]1 (single isomer, unassigned) [Example 92, (R)- or (S)-1-(Cyclopropyl(3-fluoro-4-(trifluoromethoxy)phenyl)methyl)-3-(hydroxymethyl)-6-methyl-1H-pyrazolo[3,4-d]pyrimidin-4(5H)-one] |
| 1.9 nM | Cc1nc2c(c(CO)nn2C(c2ccc(OC(F)(F)F)c(F)c2)C2CC2)c(=O)[nH]1 (single isomer, unassigned) [Example 93, (S)- or (R)-1-(Cyclopropyl(3-fluoro-4-(trifluoromethoxy)phenyl)methyl)-3-(hydroxymethyl)-6-methyl-1H-pyrazolo[3,4-d]pyrimidin-4(5H)-one] |
| 0.87 nM | COc1ccc(Cc2nc3c(c(CF)nn3C(C)c3ccc(C(F)(F)F)cc3)c(=O)[nH]2)cc1 (single isomer, unassigned) [Example 219, (S)- or (R)-3-(Fluoromethyl)-6-(4-methoxybenzyl)-1-(1-(4-(trifluoromethyl)phenyl)ethyl)-1H-pyrazolo[3,4-d]pyrimidin-4(5H)-one] |
| 1.9 nM | COc1cccc(Cc2nc3c(c(CF)nn3C(C)c3ccc(C(F)(F)F)cc3)c(=O)[nH]2)c1 (single isomer, unassigned) [Example 221, (S)- or (R)-3-(Fluoromethyl)-6-(3-methoxybenzyl)-1-(1-(4-(trifluoromethyl)phenyl)ethyl)-1H-pyrazolo[3,4-d]pyrimidin-4(5H)-one] |
| 0.94 nM | Cc1nc2c(c(CF)nn2C(c2ccc(OC(F)(F)F)cc2)C2CC2)c(=O)[nH]1 (single isomer, unassigned) [Example 224, (R)- or (S)-1-(Cyclopropyl(4-(trifluoromethoxy)phenyl)methyl)-3-(fluoromethyl)-6-methyl-1,5-dihydro-4H-pyrazolo[3,4-d]pyrimidin-4-one] |
| 0.33 nM | Cc1nc2c(c(CF)nn2C(c2ccc(C(F)(F)F)c(F)c2)C2CC2)c(=O)[nH]1 (single isomer, unassigned) [Example 226, (R)- or (S)-1-(Cyclopropyl(3-fluoro-4-(trifluoromethyl)phenyl)methyl)-3-(fluoromethyl)-6-methyl-1,5-dihydro-4H-pyrazolo[3,4-d]pyrimidin-4-one] |
| 0.5 nM | Cc1nc2c(c(CF)nn2C(c2ccc(OC(F)(F)F)c(F)c2)C2CC2)c(=O)[nH]1 (single isomer, unassigned) [Example 228, (R)- or (S)-1-(Cyclopropyl(3-fluoro-4-(trifluoromethoxy)phenyl)methyl)-3-(fluoromethyl)-6-methyl-1,5-dihydro-4H-pyrazolo[3,4-d]pyrimidin-4-one] |
